Measurements from US9926297B2, “Bicyclic AZA compounds as muscarinic M1 receptor and/or M4 receptor agonists” (Heptares Therapeutics Limited, priority 2014, dated 2018).

Legend:
[1] = target: T1, human muscarinic M1 receptor (Homo sapiens, UniProt P11229); test: Alphascreen Surefire phospho-ERK1/2 functional assay, M1; type: cell-based; conditions: for EC50 / % Emax cf. ACh, M1: CHO cells stably expressing human M1; for EC50: phospho-ERK1/2, * = variable results, read-out: pEC50 M1 (converted); for Emax: CHO, read-out: % Emax cf. ACh, M1, CHO cells stably expressing human M1; for Emax / % Emax cf. ACh, M1: relative to ACh
T1 sequence (P11229 1-460): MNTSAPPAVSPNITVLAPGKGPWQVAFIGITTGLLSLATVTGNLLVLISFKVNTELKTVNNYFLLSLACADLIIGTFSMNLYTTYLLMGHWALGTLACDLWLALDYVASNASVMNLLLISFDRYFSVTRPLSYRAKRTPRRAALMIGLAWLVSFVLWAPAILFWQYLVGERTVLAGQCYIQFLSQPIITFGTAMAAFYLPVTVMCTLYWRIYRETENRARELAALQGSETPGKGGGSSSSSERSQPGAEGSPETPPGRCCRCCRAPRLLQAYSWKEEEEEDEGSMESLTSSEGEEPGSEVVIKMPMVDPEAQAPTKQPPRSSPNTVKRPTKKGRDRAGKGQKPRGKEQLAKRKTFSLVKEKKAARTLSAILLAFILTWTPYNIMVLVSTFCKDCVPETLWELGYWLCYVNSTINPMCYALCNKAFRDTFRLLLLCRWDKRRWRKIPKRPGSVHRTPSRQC

[2] = target: T2, human muscarinic M4 receptor (Homo sapiens, UniProt P08173); test: Alphascreen Surefire phospho-ERK1/2 functional assay, M4; type: cell-based; conditions: for EC50: phospho-ERK1/2, * = variable results, read-out: pEC50 M4 (converted); for Emax: CHO, read-out: % Emax cf. ACh, M4, CHO cells stably expressing human M4
T2 construct: expressed in transfected cells
T2 sequence (P08173 1-479): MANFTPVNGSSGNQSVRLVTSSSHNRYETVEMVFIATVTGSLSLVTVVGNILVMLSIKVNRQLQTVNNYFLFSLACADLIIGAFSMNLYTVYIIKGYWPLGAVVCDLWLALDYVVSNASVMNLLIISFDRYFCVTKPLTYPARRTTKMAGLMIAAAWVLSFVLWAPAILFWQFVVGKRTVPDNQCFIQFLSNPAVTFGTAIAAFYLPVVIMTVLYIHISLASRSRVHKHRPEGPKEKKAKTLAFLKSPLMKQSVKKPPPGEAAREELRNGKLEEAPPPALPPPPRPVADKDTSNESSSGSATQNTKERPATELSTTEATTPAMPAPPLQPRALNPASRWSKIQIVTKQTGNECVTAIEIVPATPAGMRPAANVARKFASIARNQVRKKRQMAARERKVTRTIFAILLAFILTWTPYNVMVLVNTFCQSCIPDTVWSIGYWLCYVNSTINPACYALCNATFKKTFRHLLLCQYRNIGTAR

[3] = CHO cells stably expressing human M4

## CCOC(=O)N1CCC2(CC(N3CCC(c4c(CC)cnn4C)CC3)C2)C1 (single isomer, unassigned) [1-60 Isomer 2, ethyl 2-[4-(4-ethyl-1-methyl-1H-pyrazol-5-yl)piperidin-1-yl]-6-azaspiro[3.4]octane-6-carboxylate]
[1]
  EC50: 316 nM
  Emax: 82%
[2]; [3]
  EC50: 39.8 nM
[2]; relative to ACh
  Emax: 88%

## CCOC(=O)N1CCC2(CC(N3CCC(n4cnnn4)CC3)C2)C1 (single isomer, unassigned) [1-62 Isomer 2, ethyl 2-[4-(1H-tetrazol-1-yl)piperidin-1-yl]-6-azaspiro[3.4]octane-6-carboxylate]
[1]
  EC50: 1260 nM
  Emax: 73%
[2]; [3]
  EC50: > 20000 nM
[2]; relative to ACh
  Emax: 10%

## CCOC(=O)N1CCC2(CC(N3CCC(n4nnnc4C)CC3)C2)C1 (single isomer, unassigned) [1-63 Isomer 2, ethyl 2-[4-(5-methyl-1H-tetrazol-1-yl)piperidin-1-yl]-6-azaspiro[3.4]octane-6-carboxylate]
[1]
  EC50: > 20000 nM
  Emax: 82%
[2]; [3]
  EC50: 1000 nM
[2]; relative to ACh
  Emax: 24%

## CCOC(=O)N1CCC2(CC(N3CCC(c4nnnn4C)CC3)C2)C1 (single isomer, unassigned) [1-64 Isomer 2, ethyl 2-[4-(1-methyl-1H-tetrazol-5-yl)piperidin-1-yl]-6-azaspiro[3.4]octane-6-carboxylate]
[1]
  EC50: 5010 nM
  Emax: 40%
[2]; [3]
  EC50: 316 nM
[2]; relative to ACh
  Emax: 78%

## CCOC(=O)N1CCC2(CC(N3CCC(c4nnnn4CC)CC3)C2)C1 (single isomer, unassigned) [1-65 Isomer 2, ethyl 2-[4-(1-ethyl-1H-tetrazol-5-yl)piperidin-1-yl]-6-azaspiro[3.4]octane-6-carboxylate]
[1]
  EC50: > 20000 nM
  Emax: 60%
[2]; [3]
  EC50: 251 nM
[2]; relative to ACh
  Emax: 73%

## CCOC(=O)N1CCC2(CC(N3CCC(c4nnn(CC)n4)CC3)C2)C1 (single isomer, unassigned) [1-66 Isomer 2, ethyl 2-[4-(2-ethyl-2H-tetrazol-5-yl)piperidin-1-yl]-6-azaspiro[3.4]octane-6-carboxylate]
[1]
  EC50: > 20000 nM
  Emax: 14%
[2]; [3]
  EC50: 251 nM
[2]; relative to ACh
  Emax: 32%

## CCOC(=O)N1CCC2(CC(N3CCC(c4nnnn4C4CC4)CC3)C2)C1 (single isomer, unassigned) [1-67 Isomer 2, ethyl 2-[4-(1-cyclopropyl-1H-tetrazol-5-yl)piperidin-1-yl]-6-azaspiro[3.4]octane-6-carboxylate]
[1]
  EC50: 3160 nM
  Emax: 37%
[2]; [3]
  EC50: 316 nM
[2]; relative to ACh
  Emax: 75%

## [2H]C([2H])(C)OC(=O)N1CCC2(CC(N3CCC(n4cccn4)CC3)C2)C1 (single isomer, unassigned) [1-68 Isomer 2, (1,1-^2H2)ethyl 2-[4-(1H-pyrazol-1-yl)piperidin-1-yl]-6-azaspiro[3.4]octane-6-carboxylate]
[1]
  EC50: 79.4 nM
  Emax: 91%
[2]; [3]
  EC50: 6.31 nM
[2]; relative to ACh
  Emax: 98%

## [2H]C([2H])([2H])COC(=O)N1CCC2(CC(N3CCC(n4cccn4)CC3)C2)C1 (single isomer, unassigned) [1-69 Isomer 2, (2,2,2-^2H3)ethyl 2-[4-(1H-pyrazol-1-yl)piperidin-1-yl]-6-azaspiro[3.4]octane-6-carboxylate]
[1]
  EC50: 79.4 nM
  Emax: 99%
[2]; [3]
  EC50: 5.01 nM
[2]; relative to ACh
  Emax: 104%

## [2H]C([2H])([2H])C([2H])([2H])OC(=O)N1CCC2(CC(N3CCC(n4cccn4)CC3)C2)C1 (single isomer, unassigned) [1-70 Isomer 2, (^2H5)ethyl 2-[4-(1H-pyrazol-1-yl)piperidin-1-yl]-6-azaspiro[3.4]octane-6-carboxylate]
[1]
  EC50: 79.4 nM
  Emax: 92%
[2]; [3]
  EC50: 5.01 nM
[2]; relative to ACh
  Emax: 101%

## [2H]C([2H])(C)OC(=O)N1CCC2(CC(N3CCC(c4ccnn4C)CC3)C2)C1 (single isomer, unassigned) [1-71 Isomer 2, (1,1-^2H2)ethyl 2-[4-(1-methyl-1H-pyrazol-5-yl)piperidin-1-yl]-6-azaspiro[3.4]octane-6-carboxylate]
[1]
  EC50: > 20000 nM
  Emax: 6%
[2]; [3]
  EC50: 100 nM
[2]; relative to ACh
  Emax: 69%

## [2H]C([2H])([2H])COC(=O)N1CCC2(CC(N3CCC(c4ccnn4C)CC3)C2)C1 (single isomer, unassigned) [1-72 Isomer 2, (2,2,2-^2H3)ethyl 2-[4-(1-methyl-1H-pyrazol-5-yl)piperidin-1-yl]-6-azaspiro[3.4]octane-6-carboxylate]
[1]
  EC50: > 20000 nM
  Emax: 17%
[2]; [3]
  EC50: 158 nM
[2]; relative to ACh
  Emax: 69%

## [2H]C([2H])([2H])C([2H])([2H])OC(=O)N1CCC2(CC(N3CCC(c4ccnn4C)CC3)C2)C1 (single isomer, unassigned) [1-73 Isomer 2, (^2H5)ethyl 2-[4-(1-methyl-1H-pyrazol-5-yl)piperidin-1-yl]-6-azaspiro[3.4]octane-6-carboxylate]
[1]
  EC50: > 20000 nM
  Emax: 11%
[2]; [3]
  EC50: 126 nM
[2]; relative to ACh
  Emax: 72%

## CCC(=O)N1CCCC1C1CCN(C2CC3(CCN(C(=O)OC)C3)C2)CC1 (single isomer, unassigned) [2-5 Isomer 2, methyl 2-[4-(1-propanoylpyrrolidin-2-yl)piperidin-1-yl]-6-azaspiro[3.4]octane-6-carboxylate]
[1]
  EC50: 6310 nM
  Emax: 34%
[2]; [3]
  EC50: 158 nM
[2]; relative to ACh
  Emax: 66%

## COC(=O)N1CCC2(CC(N3CCC(C4CCCN4C(=O)OC)CC3)C2)C1 (single isomer, unassigned) [2-10 Isomer 2, methyl 2-{4-[1-(methoxycarbonyl)pyrrolidin-2-yl]piperidin-1-yl}-6-azaspiro[3.4]octane-6-carboxylate]
[1]
  EC50: > 20000 nM
  Emax: 19%
[2]; [3]
  EC50: 200 nM
[2]; relative to ACh
  Emax: 50%

## CCOC(=O)N1CCC2(CC(N3CCC(C4CCCN4C)CC3)C2)C1 (single isomer, unassigned) [2-22 Isomer 2, ethyl 2-[4-(1-methylpyrrolidin-2-yl)piperidin-1-yl]-6-azaspiro[3.4]octane-6-carboxylate]
[1]
  EC50: > 20000 nM
  Emax: 7%
[2]; [3]
  EC50: 316 nM
[2]; relative to ACh
  Emax: 31%

## COC(=O)N1CCC2(CC(N3CCC([C@@H]4CCCN4C(=O)N4CC(F)(F)C4)CC3)C2)C1 (single isomer, unassigned) [2-41 Isomer 2]
[1]
  EC50: 2510 nM
  Emax: 36%
[2]; [3]
  EC50: 100 nM
[2]; relative to ACh
  Emax: 91%

## CCOC(=O)N1CCC2(CC(N3CCC([C@@H]4CCCN4C(=O)OCCF)CC3)C2)C1 (single isomer, unassigned) [2-47 Isomer 2]
[1]
  EC50: 6310 nM
  Emax: 45%
[2]; [3]
  EC50: 1000 nM
[2]; relative to ACh
  Emax: 63%

## CCOC(=O)N1CCC2(CC(N3CCC([C@@H]4CCCN4C(=O)N(C)CC(F)(F)F)CC3)C2)C1 (single isomer, unassigned) [2-55 Isomer 1]
[1]
  EC50: > 20000 nM
  % Emax cf. ACh, M1: 15%
[2]; [3]
  EC50: 158 nM
[2]; relative to ACh
  Emax: 67%

## CCOC(=O)N1CCC2(CC(N3CCC([C@@H]4CCCN4CC)CC3)C2)C1 (single isomer, unassigned) [2-61 Isomer 2]
[1]
  EC50: > 20000 nM
  Emax: 10%
[2]; [3]
  EC50: 501 nM
[2]; relative to ACh
  Emax: 40%

## CCOC(=O)N1CCC2(CC(N3CCC([C@@H]4CCCN4CCC(F)(F)F)CC3)C2)C1 (single isomer, unassigned) [2-70 Isomer 1]
[1]
  EC50: 3980 nM
  % Emax cf. ACh, M1: 37%
[2]; [3]
  EC50: 158 nM
[2]; CHO cells stably expressing human M4, relative to ACh
  % Emax cf. ACh, M4: 52%
